Activity calls are given as the source filed them. No rule for the calls is given here.

Data on eight compounds can be found in PubChem BioAssay AID1259407 (Chemical Carcinogenesis Research Information System (CCRIS), 2018).

This data set concerns CCRIS mutagenicity, Ames/micronucleus/aberration tests. Put plainly: CCRIS mutagenicity studies.
Setting [1] is: Test System: AMES SALMONELLA TYPHIMURIUM, Strain/Indicator: TA98, Metabolic Activation: NONE, Method: STANDARD PLATE.
[2] abbreviates: Test System: AMES SALMONELLA TYPHIMURIUM, Strain/Indicator: TA98, Metabolic Activation: RAT, LIVER, S-9, AROCLOR 1254, Method: STANDARD PLATE.
The mark [3] stands for this setting: Test System: AMES SALMONELLA TYPHIMURIUM, Strain/Indicator: TA100, Metabolic Activation: NONE, Method: STANDARD PLATE.
Setting [4] is: Test System: AMES SALMONELLA TYPHIMURIUM, Strain/Indicator: TA100, Metabolic Activation: RAT, LIVER, S-9, AROCLOR 1254, Method: STANDARD PLATE.

As for `NC(=O)CCC(=O)Nc1ccc(Cl)c(Cl)c1`, the mutagenic call by setting is: under setting [1], “inactive; negative”; under setting [2], “inactive; negative”; under setting [3], “inactive; negative”; under setting [4], “inactive; negative”.
Turning to `Cn1c(N)nc2nc3ccncc3cc21`, the mutagenic call is “inactive; negative” (Test System: AMES SALMONELLA TYPHIMURIUM, Strain/Indicator: TA98, Metabolic Activation: RAT, LIVER, S-9, AROCLOR 1254A, Method: STANDARD PLATE) and “active; positive” (Test System: AMES SALMONELLA TYPHIMURIUM, Strain/Indicator: YG1024, Metabolic Activation: RAT, LIVER, S-9, AROCLOR 1254A, Method: STANDARD PLATE).
On to `O=C1C=CC(=O)CC(=O)C1`, for which the mutagenic call is “inactive; negative” (Test System: AMES SALMONELLA TYPHIMURIUM, Strain/Indicator: TA98, Metabolic Activation: HAMSTER, LIVER, S-9, AROCLOR 1254, Method: STANDARD PLATE); “inactive; negative” under setting [1]; “inactive; negative” under setting [2]; “inactive; negative” (Test System: AMES SALMONELLA TYPHIMURIUM, Strain/Indicator: TA100, Metabolic Activation: HAMSTER, LIVER, S-9, AROCLOR 1254, Method: STANDARD PLATE); “inactive; negative” under setting [3]; “inactive; negative” under setting [4]. The mutagenic call is “inactive; negative” (Test System: AMES SALMONELLA TYPHIMURIUM, Strain/Indicator: TA1535, Metabolic Activation: HAMSTER, LIVER, S-9, AROCLOR 1254, Method: STANDARD PLATE); “inactive; negative” (Test System: AMES SALMONELLA TYPHIMURIUM, Strain/Indicator: TA1535, Metabolic Activation: NONE, Method: STANDARD PLATE); “inactive; negative” (Test System: AMES SALMONELLA TYPHIMURIUM, Strain/Indicator: TA1535, Metabolic Activation: RAT, LIVER, S-9, AROCLOR 1254, Method: STANDARD PLATE); “inactive; negative” (Test System: AMES SALMONELLA TYPHIMURIUM, Strain/Indicator: TA1537, Metabolic Activation: HAMSTER, LIVER, S-9, AROCLOR 1254, Method: STANDARD PLATE); “inactive; negative” (Test System: AMES SALMONELLA TYPHIMURIUM, Strain/Indicator: TA1537, Metabolic Activation: NONE, Method: STANDARD PLATE); “inactive; negative” (Test System: AMES SALMONELLA TYPHIMURIUM, Strain/Indicator: TA1537, Metabolic Activation: RAT, LIVER, S-9, AROCLOR 1254, Method: STANDARD PLATE). For the same compound, the mutagenic call is “inactive; negative” (Test System: AMES SALMONELLA TYPHIMURIUM, Strain/Indicator: TA1538, Metabolic Activation: HAMSTER, LIVER, S-9, AROCLOR 1254, Method: STANDARD PLATE); “inactive; negative” (Test System: AMES SALMONELLA TYPHIMURIUM, Strain/Indicator: TA1538, Metabolic Activation: NONE, Method: STANDARD PLATE); “inactive; negative” (Test System: AMES SALMONELLA TYPHIMURIUM, Strain/Indicator: TA1538, Metabolic Activation: RAT, LIVER, S-9, AROCLOR 1254, Method: STANDARD PLATE); “active; positive. reevaluation of results: positive” (Test System: MOUSE LYMPHOMA, Strain/Indicator: L5178Y (TK+/TK-), Metabolic Activation: NONE, Method: SUSPENSION/PLATE); “inactive; negative. reevaluation of results: negative” (Test System: MOUSE LYMPHOMA, Strain/Indicator: L5178Y (TK+/TK-), Metabolic Activation: RAT, LIVER, S-9, AROCLOR 1254, Method: SUSPENSION/PLATE).
For the compound `Cn1cnc(-c2ccccc2)c1N=O`, the mutagenic call under setting [3] was “active; positive”.
`COc1cc(/C=C/c2ccccc2)oc(=O)c1`: the mutagenic call (Test System: Mouse lymphoma cells, Strain/Indicator: L5178Y ( tk+/tk-), Metabolic Activation: Human, Liver, S-9, Method: Suspension/plate) was “inactive; negative”.
`N[C@@H](Cc1c[nH]c2ccccc12)C(=O)O`: the mutagenic call runs as follows: (Test System: AMES SALMONELLA TYPHIMURIUM, Strain/Indicator: TA97, Metabolic Activation: HAMSTER, LIVER, S-9, AROCLOR 1254 (10 OR 30%), Method: PREINCUBATION) “inactive; negative”; (Test System: AMES SALMONELLA TYPHIMURIUM, Strain/Indicator: TA97, Metabolic Activation: NONE, Method: PREINCUBATION) “inactive; negative”; (Test System: AMES SALMONELLA TYPHIMURIUM, Strain/Indicator: TA97, Metabolic Activation: RAT, LIVER, S-9, AROCLOR 1254 (10 OR 30%), Method: PREINCUBATION) “inactive; negative”; (Test System: AMES SALMONELLA TYPHIMURIUM, Strain/Indicator: TA98, Metabolic Activation: HAMSTER, LIVER, S-9, AROCLOR 1254 (10 OR 30%), Method: PREINCUBATION) “inactive; negative”; (Test System: AMES SALMONELLA TYPHIMURIUM, Strain/Indicator: TA98, Metabolic Activation: NONE, Method: PREINCUBATION) “inactive; negative”; (Test System: AMES SALMONELLA TYPHIMURIUM, Strain/Indicator: TA98, Metabolic Activation: RAT, LIVER, S-9, AROCLOR 1254 (10 OR 30%), Method: PREINCUBATION) “inactive; negative”. In addition, the mutagenic call is, setting by setting: (Test System: AMES SALMONELLA TYPHIMURIUM, Strain/Indicator: TA100, Metabolic Activation: HAMSTER, LIVER, S-9, AROCLOR 1254 (10 OR 30%), Method: PREINCUBATION) “inactive; negative”; (Test System: AMES SALMONELLA TYPHIMURIUM, Strain/Indicator: TA100, Metabolic Activation: NONE, Method: PREINCUBATION) “inactive; negative”; (Test System: AMES SALMONELLA TYPHIMURIUM, Strain/Indicator: TA100, Metabolic Activation: RAT, LIVER, S-9, AROCLOR 1254 (10 OR 30%), Method: PREINCUBATION) “inactive; negative”; (Test System: AMES SALMONELLA TYPHIMURIUM, Strain/Indicator: TA1535, Metabolic Activation: HAMSTER, LIVER, S-9, AROCLOR 1254 (10 OR 30%), Method: PREINCUBATION) “inactive; negative”; (Test System: AMES SALMONELLA TYPHIMURIUM, Strain/Indicator: TA1535, Metabolic Activation: NONE, Method: PREINCUBATION) “inactive; negative”; (Test System: AMES SALMONELLA TYPHIMURIUM, Strain/Indicator: TA1535, Metabolic Activation: RAT, LIVER, S-9, AROCLOR 1254 (10 OR 30%), Method: PREINCUBATION) “inactive; negative”. Further, the mutagenic call is “inactive; negative” (Test System: AMES SALMONELLA TYPHIMURIUM, Strain/Indicator: TA1537, Metabolic Activation: HAMSTER, LIVER, S-9, AROCLOR 1254 (30%), Method: PREINCUBATION); “inactive; negative” (Test System: AMES SALMONELLA TYPHIMURIUM, Strain/Indicator: TA1537, Metabolic Activation: NONE, Method: PREINCUBATION); “inactive; negative” (Test System: AMES SALMONELLA TYPHIMURIUM, Strain/Indicator: TA1537, Metabolic Activation: RAT, LIVER, S-9, AROCLOR 1254 (30%), Method: PREINCUBATION).
Regarding `C[C@H](Br)C(=O)NCc1ccccc1`, the mutagenic call under setting [3] was “active; positive”.
Take `O=[N+]([O-])c1ccc(-c2cscn2)o1`: the mutagenic call (Test System: AMES SALMONELLA TYPHIMURIUM, Strain/Indicator: TA100, Metabolic Activation: RAT, LIVER, S-9, KC500 OR PHENOBARBITAL, Method: LIQUID SUSPENSION) was “active; positive”.
